{"source": "patent US9113629B2", "about": "“4-amino-6-(4-substituted-phenyl)-picolinates and 6-amino-2-(4-substituted-phenyl)-pyrimidine-4-carboxylates and their use as herbicides” (DOW AGROSCIENCES LLC, priority 2013, dated 2015)", "key": {"[1]": {"test_system": "test plant species in Direct Seeded Rice", "assay": "Postemergence herbicidal activity in direct seeded rice (Table 13)", "format": "in vivo", "settings": "for pest or weed control at 35 g/ha / pest or weed control at 70 g/ha: post-emergence, 504 h; for pest or weed control at 35 g/ha: 35 g ai/ha; for pest or weed control at 70 g/ha: 70 g ai/ha", "summary_of_the_method": "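Visual injury scores (0 no injury to 100 complete kill) taken 20-22 days after treatment were converted by probit analysis into GR20–GR90 doses. Treatment was an overhead track spray at 187 L/ha onto second-to-third true leaf plants, using acetone/DMSO (final 16.2%/0.5%) with Agri-dex crop oil; solvent blank served as control.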"}, "HORSS": {"test_system": "HORSS", "assay": "Pre-emergent Test III, preemergent activity in wheat and barley", "format": "in vivo, Hordeum vulgare", "description": "(§1) Pre-emergent Test III. Seeds of test species were planted into square plastic pots (10 cm wide) containing sandy loam soil. After planting, all pots were sub-irrigated 16 h prior to compound application. A weighed amount, determined by the highest rate to be tested, of each test compound was placed in a 25 mL glass vial and was dissolved in 4 mL of a 97:3 v/v mixture of acetone and DMSO to obtain concentrated stock solutions. […] The concentrated stock solutions obtained were diluted with 20 mL of an aqueous mixture containing water and 0.02% w/v (weight/volume) of Triton X-155 to obtain spray solutions containing the highest application rates. Additional application rates were obtained by serial dilution of 12 mL of the high rate solution into a solution containing 2 mL of 97:3 v/v mixture of acetone and DMSO and 10 mL of an aqueous mixture containing water and 0.02% w/v (weight/volume) of Triton X-155 to obtain 1⁄2×, 1⁄4×, 1⁄8× and 1/16× rates of the high rate. Compound requirements are based upon a 12 mL application volume at a rate of 187 liters per hectare (L/ha). Formulated compounds were applied to the soil surface with an overhead Mandel track sprayer equipped with […] nozzles calibrated to deliver 187 L/ha over an application area of 0.503 square meters. Control pots were sprayed in the same manner with the solvent blank. The treated pots and control pots were placed in a greenhouse as described above and watered through surface irrigation. After 21 d, the condition of the test pots as compared with that of the untreated pots was determined visually and scored on a scale of 0 to 100 percent where 0 corresponds to no herbicidal effect and 100 corresponds to plant death or lack of emergence from the soil. By applying the well-accepted probit analysis as described by J. Berkson in Journal of the American Statistical Society, 48, 565 (1953) and by D. Finney in “Probit Analysis” Cambridge University Press (1952), the above data can be used to calculate GR20, GR50, GR80 and GR90 values, which are defined as growth reduction factors that correspond to the effective dose of herbicide required to kill or control 20 percent, 50 percent, 80 percent or 90 percent, respectively, of a target plant."}, "LAMSS": {"test_system": "LAMSS", "assay": "Pre-emergent Test III, preemergent activity in wheat and barley", "format": "in vivo", "description": "as §1"}, "LOLSS": {"test_system": "LOLSS", "assay": "Pre-emergent Test III, preemergent activity in wheat and barley", "format": "in vivo, Lolium multiflorum, Lolium rigidum", "description": "as §1"}, "TRZSS": {"test_system": "TRZSS", "assay": "Pre-emergent Test III, preemergent activity in wheat and barley", "format": "in vivo, Triticum aestivum", "description": "as §1"}, "SETVI": {"test_system": "SETVI", "assay": "Pre-emergent Test III, preemergent activity in wheat and barley", "format": "in vivo, Setaria viridis", "description": "as §1"}, "[2]": {"settings": "BRAPP: broadleaf signalgrass, Brachiaria platyphylla, probit analysis"}, "[3]": {"settings": "CYPSS: sedge (Cyperus difformis, esculentus, iria), probit analysis"}, "[4]": {"settings": "ECHSS: barnyardgrass (Echinochloa crus-galli), junglerice (Echinochloa colonum), probit analysis"}, "[5]": {"settings": "LEFSS: sprangletop (Leptochloa chinensis, Leptochloa dubia), probit analysis"}, "[6]": {"settings": "SCPJU: Japanese bulrush, Scirpus juncoides, probit analysis"}, "[7]": {"settings": "SEBEX: hemp sesbania, Sesbania exaltata, probit analysis"}, "[8]": {"settings": "BRAPP: broadleaf signalgrass, Brachiaria platyphylla, read-out: Visual Growth Reduction (%) 21 Days After Application BRAPP"}, "[9]": {"settings": "CYPSS: sedge (Cyperus difformis, esculentus, iria), read-out: Visual Growth Reduction (%) 21 Days After Application CYPSS"}, "[10]": {"settings": "ECHSS: barnyardgrass (Echinochloa crus-galli), junglerice (Echinochloa colonum), read-out: Visual Growth Reduction (%) 21 Days After Application ECHSS"}, "[11]": {"settings": "LEFSS: sprangletop (Leptochloa chinensis, Leptochloa dubia), read-out: Visual Growth Reduction (%) 21 Days After Application LEFSS"}, "[12]": {"settings": "ORYSS: Oryza sativa, read-out: Visual Growth Reduction (%) 21 Days After Application ORYSS"}, "[13]": {"settings": "SCPJU: Japanese bulrush, Scirpus juncoides, read-out: Visual Growth Reduction (%) 21 Days After Application SCPJU"}, "[14]": {"settings": "SEBEX: hemp sesbania, Sesbania exaltata, read-out: Visual Growth Reduction (%) 21 Days After Application SEBEX"}, "[15]": {"settings": "21 days after application, dose to kill or control 20%, probit analysis"}, "[16]": {"settings": "21 days after application, dose to kill or control 50%, probit analysis"}, "[17]": {"settings": "21 days after application, dose to kill or control 80%, probit analysis"}}, "note": "Read-outs that look alike come from different tables or passages of the source."}
{"smiles": "COC(=O)c1nc(-c2ccc(Cl)c(F)c2)c(F)c(N)c1Cl", "note": "[Compound 216]", "values": [{"measurement": "GR50 BRAPP", "setting": "[1]; [2]", "value": 8, "unit": "g ai/ha"}, {"measurement": "GR80 BRAPP", "setting": "[1]; [2]", "value": 27, "unit": "g ai/ha"}, {"measurement": "GR50 CYPSS", "setting": "[1]; [3]", "value": 10, "unit": "g ai/ha"}, {"measurement": "GR80 CYPSS", "setting": "[1]; [3]", "value": 70, "unit": "g ai/ha"}, {"measurement": "GR50 ECHSS", "setting": "[1]; [4]", "value": 4, "unit": "g ai/ha"}, {"measurement": "GR80 ECHSS", "setting": "[1]; [4]", "value": 15, "unit": "g ai/ha"}, {"measurement": "GR50 LEFSS", "setting": "[1]; [5]", "value": 8, "unit": "g ai/ha"}, {"measurement": "GR80 LEFSS", "setting": "[1]; [5]", "value": 23, "unit": "g ai/ha"}, {"measurement": "GR20 ORYSS", "setting": "[1]; ORYSS: Oryza sativa (crop), probit analysis", "value": ">70", "unit": "g ai/ha"}, {"measurement": "GR50 SCPJU", "setting": "[1]; [6]", "value": 1, "unit": "g ai/ha"}, {"measurement": "GR80 SCPJU", "setting": "[1]; [6]", "value": 1, "unit": "g ai/ha"}, {"measurement": "GR50 SEBEX", "setting": "[1]; [7]", "value": 1, "unit": "g ai/ha"}, {"measurement": "GR80 SEBEX", "setting": "[1]; [7]", "value": 1, "unit": "g ai/ha"}, {"measurement": "pest or weed control at 35 g/ha", "setting": "[1]; [8]", "value": "85 to 94", "unit": "%"}, {"measurement": "pest or weed control at 70 g/ha", "setting": "[1]; [8]", "value": "85 to 94", "unit": "%"}, {"measurement": "pest or weed control at 35 g/ha", "setting": "[1]; [9]", "value": "85 to 94", "unit": "%"}, {"measurement": "pest or weed control at 70 g/ha", "setting": "[1]; [9]", "value": "85 to 94", "unit": "%"}, {"measurement": "pest or weed control at 35 g/ha", "setting": "[1]; [10]", "value": "85 to 94", "unit": "%"}, {"measurement": "pest or weed control at 70 g/ha", "setting": "[1]; [10]", "value": "95 to 100", "unit": "%"}, {"measurement": "pest or weed control at 35 g/ha", "setting": "[1]; [11]", "value": "85 to 94", "unit": "%"}, {"measurement": "pest or weed control at 70 g/ha", "setting": "[1]; [11]", "value": "95 to 100", "unit": "%"}, {"measurement": "pest or weed control at 35 g/ha", "setting": "[1]; [12]", "value": "0 to 29", "unit": "%"}, {"measurement": "pest or weed control at 70 g/ha", "setting": "[1]; [12]", "value": "0 to 29", "unit": "%"}, {"measurement": "pest or weed control at 35 g/ha", "setting": "[1]; [13]", "value": "95 to 100", "unit": "%"}, {"measurement": "pest or weed control at 70 g/ha", "setting": "[1]; [13]", "value": "95 to 100", "unit": "%"}, {"measurement": "pest or weed control at 35 g/ha", "setting": "[1]; [14]", "value": "95 to 100", "unit": "%"}, {"measurement": "pest or weed control at 70 g/ha", "setting": "[1]; [14]", "value": "95 to 100", "unit": "%"}]}
{"smiles": "COC(=O)c1nc(-c2ccc(Br)c(F)c2)c(F)c(N)c1Cl", "note": "[Compound 49]", "values": [{"measurement": "Visual Growth Reduction (%) 21 Days After Application, HORSS", "setting": "HORSS; 35 g ai/ha", "value": "G (0-29)"}, {"measurement": "Visual Growth Reduction (%) 21 Days After Application, HORSS", "setting": "HORSS; 70 g ai/ha", "value": "G (0-29)"}, {"measurement": "GR20 HORSS", "setting": "HORSS; [15]", "value": ">70", "unit": "g ai/ha"}, {"measurement": "Visual Growth Reduction (%) 21 Days After Application, LAMSS", "setting": "LAMSS; 35 g ai/ha", "value": "A (95-100)"}, {"measurement": "Visual Growth Reduction (%) 21 Days After Application, LAMSS", "setting": "LAMSS; 70 g ai/ha", "value": "A (95-100)"}, {"measurement": "GR50 LAMSS", "setting": "LAMSS; [16]", "value": 1, "unit": "g ai/ha"}, {"measurement": "GR80 LAMSS", "setting": "LAMSS; [17]", "value": 3, "unit": "g ai/ha"}, {"measurement": "Visual Growth Reduction (%) 21 Days After Application, LOLSS", "setting": "LOLSS; 35 g ai/ha", "value": "G (0-29)"}, {"measurement": "Visual Growth Reduction (%) 21 Days After Application, LOLSS", "setting": "LOLSS; 70 g ai/ha", "value": "G (0-29)"}, {"measurement": "GR50 LOLSS", "setting": "LOLSS; [16]", "value": ">70", "unit": "g ai/ha"}, {"measurement": "GR80 LOLSS", "setting": "LOLSS; [17]", "value": ">70", "unit": "g ai/ha"}, {"measurement": "Visual Growth Reduction (%) 21 Days After Application, TRZSS", "setting": "TRZSS; 35 g ai/ha", "value": "G (0-29)"}, {"measurement": "Visual Growth Reduction (%) 21 Days After Application, TRZSS", "setting": "TRZSS; 70 g ai/ha", "value": "G (0-29)"}, {"measurement": "GR20 TRZSS", "setting": "TRZSS; [15]", "value": ">70", "unit": "g ai/ha"}, {"measurement": "Visual Growth Reduction (%) 21 Days After Application, SETVI", "setting": "SETVI; 35 g ai/ha", "value": "F (30-44)"}, {"measurement": "Visual Growth Reduction (%) 21 Days After Application, SETVI", "setting": "SETVI; 70 g ai/ha", "value": "F (30-44)"}, {"measurement": "GR50 SETVI", "setting": "SETVI; [16]", "value": ">70", "unit": "g ai/ha"}, {"measurement": "GR80 SETVI", "setting": "SETVI; [17]", "value": ">70", "unit": "g ai/ha"}]}
